PubChem BioAssay AID330 (DTP/NCI, 2004)
“And” between values parts separate entries of the source, which are not always exact repeats. Equal entries are not always repeated. Toxic doses and inconclusive results are not listed.

Tested on: P388 leukemia ip, CD2F1 mice, survival T/C
Assay: NCI In Vivo Anticancer Drug Screen. Data for tumor model P388 Leukemia (intraperitoneal) in CD2F1 (CDF1) mice
Conditions: endpoint: median survival time, higher = longer survival
Procedure, shortened: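 Mice carrying the transplanted tumor received test compound or vehicle. Survival was recorded in each group, and the value is the treated-group measurement divided by that of the vehicle-treated control group.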

[1] = dose: 50.0 mg/kg/injection, schedule: Q01DX009 (ip), vehicle: saline
[2] = dose: 100.0 mg/kg/injection, schedule: Q01DX009 (ip), vehicle: saline
[3] = dose: 200.0 mg/kg/injection, schedule: Q01DX009 (ip), vehicle: saline
[4] = dose: 25.0 mg/kg/injection, schedule: Q01DX009 (ip), vehicle: saline
[5] = dose: 60.0 mg/kg/injection, schedule: Q01DX005 (ip), vehicle: saline
[6] = dose: 50.0 mg/kg/injection, schedule: Q01DX005 (ip), vehicle: Klucel (hydroxypropylcellulose) (HPC)
[7] = dose: 100.0 mg/kg/injection, schedule: Q01DX005 (ip), vehicle: Klucel (hydroxypropylcellulose) (HPC)
[8] = dose: 50.0 mg/kg/injection, schedule: Q01DX005 (ip), vehicle: saline with Tween-80
[9] = dose: 100.0 mg/kg/injection, schedule: Q01DX005 (ip), vehicle: saline with Tween-80
[10] = dose: 200.0 mg/kg/injection, schedule: Q01DX005 (ip), vehicle: saline with Tween-80
[11] = dose: 100.0 mg/kg/injection, schedule: Q01DX009 (ip), vehicle: Klucel (hydroxypropylcellulose) (HPC)
[12] = dose: 200.0 mg/kg/injection, schedule: Q01DX009 (ip), vehicle: Klucel (hydroxypropylcellulose) (HPC)

CCC[CH2][Sn]([CH3])([CH3])[CH2]CCN(C)C
T/C [1]: 98 % of control | T/C [2]: 98 % of control | T/C [3]: 88 % of control

O=C1C=CC(=O)c2c(O)cccc21
T/C (dose: 0.39 mg/kg/injection, schedule: Q01DX009 (ip), vehicle: saline with Tween-80): 93 % of control | T/C (dose: 0.75 mg/kg/injection, schedule: Q01DX009 (ip), vehicle: saline with Tween-80): 95 % of control | T/C (dose: 0.78 mg/kg/injection, schedule: Q01DX009 (ip), vehicle: saline with Tween-80): 93 % of control | T/C (dose: 1.5 mg/kg/injection, schedule: Q01DX009 (ip), vehicle: saline with Tween-80): 90 % of control | T/C (dose: 1.56 mg/kg/injection, schedule: Q01DX009 (ip), vehicle: saline with Tween-80): 102 % of control | T/C (dose: 3.13 mg/kg/injection, schedule: Q01DX009 (ip), vehicle: saline with Tween-80): 90 % of control

NC(=S)Nc1ccc(C(=O)O)cc1
T/C (dose: 100.0 mg/kg/injection, schedule: Q04DX003 (ip), vehicle: saline with Tween-80): 100 % of control | T/C (dose: 200.0 mg/kg/injection, schedule: Q04DX003 (ip), vehicle: saline with Tween-80): 95 % of control | T/C (dose: 400.0 mg/kg/injection, schedule: Q04DX003 (ip), vehicle: saline with Tween-80): 109 % of control

CSc1nccnn1
T/C (dose: 6.25 mg/kg/injection, schedule: Q01DX009 (ip), vehicle: saline): 109 % of control | T/C (dose: 12.5 mg/kg/injection, schedule: Q01DX009 (ip), vehicle: saline): 115 % of control | T/C [4]: 108 % of control and 116 % of control | T/C [1]: 118 % of control | T/C [2]: 120 % of control

CC[C@H]1CN2CCc3cc(OC)c(OC)cc3[C@@H]2C[C@@H]1C[C@H]1NCCc2cc(OC)c(OC)cc21
T/C (dose: 1.0 mg/kg/injection, schedule: Q01DX009 (ip), vehicle: water): 112 % of control and 118 % of control | T/C (dose: 4.0 mg/kg/injection, schedule: Q01DX009 (ip), vehicle: water): 154 % of control | T/C (dose: 4.32 mg/kg/injection, schedule: Q04DX003 (ip), vehicle: saline): 118 % of control and 122 % of control | T/C (dose: 5.0 mg/kg/injection, schedule: Q04DX003 (ip), vehicle: saline): 121 % of control | T/C (dose: 5.18 mg/kg/injection, schedule: Q04DX002 (ip), vehicle: saline): 106 % of control | T/C (dose: 5.18 mg/kg/injection, schedule: Q04DX003 (ip), vehicle: saline): 122 % of control | T/C (dose: 7.2 mg/kg/injection, schedule: Q04DX003 (ip), vehicle: saline): 123 % of control | T/C (dose: 8.0 mg/kg/injection, schedule: Q01DX009 (ip), vehicle: water): 166 % of control and 183 % of control | T/C (dose: 8.64 mg/kg/injection, schedule: Q04DX003 (ip), vehicle: saline): 122 % of control | T/C (dose: 12.0 mg/kg/injection, schedule: Q04DX003 (ip), vehicle: saline): 153 % of control | T/C (dose: 14.4 mg/kg/injection, schedule: Q04DX002 (ip), vehicle: saline): 151 % of control and 156 % of control | T/C (dose: 14.4 mg/kg/injection, schedule: Q04DX003 (ip), vehicle: saline): 153 % of control | T/C (dose: 16.0 mg/kg/injection, schedule: Q01DX009 (ip), vehicle: water): 115 % of control | T/C (dose: 20.0 mg/kg/injection, schedule: Q04DX003 (ip), vehicle: saline): 169 % of control and 174 % of control and 175 % of control | T/C (dose: 24.0 mg/kg/injection, schedule: Q04DX002 (ip), vehicle: saline): 175 % of control and 177 % of control | T/C (dose: 24.0 mg/kg/injection, schedule: Q04DX003 (ip), vehicle: saline): 183 % of control and 213 % of control | T/C (dose: 33.3 mg/kg/injection, schedule: Q04DX003 (ip), vehicle: saline): 224 % of control and 94 % of control

CC1(C)OS(=O)(=O)C=C1Br
T/C (dose: 100.0 mg/kg/injection, schedule: Q04DX003 (ip), vehicle: saline): 96 % of control | T/C (dose: 200.0 mg/kg/injection, schedule: Q04DX003 (ip), vehicle: saline): 110 % of control | T/C (dose: 400.0 mg/kg/injection, schedule: Q04DX003 (ip), vehicle: saline): 103 % of control

FC(F)(F)SN1CN(SC(F)(F)F)CN(SC(F)(F)F)CN(SC(F)(F)F)C1
T/C [5]: 103 % of control and 96 % of control | T/C (dose: 120.0 mg/kg/injection, schedule: Q01DX005 (ip), vehicle: saline): 96 % of control | T/C (dose: 240.0 mg/kg/injection, schedule: Q01DX005 (ip), vehicle: saline): 100 % of control

CNc1[nH]c(=O)ncc1N
T/C (dose: 25.0 mg/kg/injection, schedule: Q01DX005 (ip), vehicle: Klucel (hydroxypropylcellulose) (HPC)): 98 % of control | T/C [6]: 98 % of control | T/C [7]: 98 % of control

CC(C)c1nccn1Cc1ccccc1
T/C (dose: 15.0 mg/kg/injection, schedule: Q01DX005 (ip), vehicle: saline): 101 % of control | T/C (dose: 30.0 mg/kg/injection, schedule: Q01DX005 (ip), vehicle: saline): 99 % of control | T/C [5]: 101 % of control and 90 % of control

CCOC(=O)CCN(CC1CC=CCC1)c1cc(O)c2c(c1O)C(=O)c1ccccc1C2=O (centres undefined)
T/C (dose: 25.0 mg/kg/injection, schedule: Q01DX005 (ip), vehicle: saline with Tween-80): 91 % of control | T/C [8]: 92 % of control | T/C [9]: 90 % of control | T/C [10]: 92 % of control

CS/C(=N/N=C/c1ccc2ccccc2n1)SS/C(=N/N=C\c1ccc2ccccc2n1)SC
T/C [8]: 88 % of control | T/C [9]: 91 % of control | T/C [10]: 104 % of control

C=C1C(=O)OC2C[C@@]3(C)CC(O)C[C@H](C)C3=CC12 (some centres undefined)
T/C (dose: 10.0 mg/kg/injection, schedule: Q01DX009 (ip), vehicle: distilled water + Tween-80 + alcohol): 103 % of control | T/C (dose: 20.0 mg/kg/injection, schedule: Q01DX009 (ip), vehicle: distilled water + Tween-80 + alcohol): 111 % of control | T/C (dose: 37.5 mg/kg/injection, schedule: Q01DX009 (ip), vehicle: distilled water + Tween-80 + alcohol): 120 % of control | T/C (dose: 40.0 mg/kg/injection, schedule: Q01DX009 (ip), vehicle: distilled water + Tween-80 + alcohol): 117 % of control | T/C (dose: 75.0 mg/kg/injection, schedule: Q01DX009 (ip), vehicle: distilled water + Tween-80 + alcohol): 123 % of control

COC1=C(OC)C(C(O)CO)OC1=O (centres undefined)
T/C (dose: 25.0 mg/kg/injection, schedule: Q01DX009 (ip), vehicle: water): 98 % of control | T/C (dose: 50.0 mg/kg/injection, schedule: Q01DX009 (ip), vehicle: water): 98 % of control | T/C (dose: 100.0 mg/kg/injection, schedule: Q01DX009 (ip), vehicle: water): 90 % of control | T/C (dose: 200.0 mg/kg/injection, schedule: Q01DX009 (ip), vehicle: water): 99 % of control | T/C (dose: 400.0 mg/kg/injection, schedule: Q01DX009 (ip), vehicle: water): 96 % of control

COc1ccc(C2CC(c3ccccc3)=Nc3ccccc3S2)cc1 (centres undefined)
T/C (dose: 50.0 mg/kg/injection, schedule: Q01DX009 (ip), vehicle: Klucel (hydroxypropylcellulose) (HPC)): 101 % of control | T/C [11]: 108 % of control | T/C [12]: 108 % of control

O=C1NC(O)c2cc(O)ccc2O1 (centres undefined)
T/C [6]: 100 % of control | T/C [7]: 100 % of control | T/C (dose: 200.0 mg/kg/injection, schedule: Q01DX005 (ip), vehicle: Klucel (hydroxypropylcellulose) (HPC)): 111 % of control

O=C1C=CC(=CC=C2C=CN(CCCCCCO)C=C2)C=C1
T/C (dose: 60.0 mg/kg/injection, schedule: Q01DX005 (ip), vehicle: saline with Tween-80): 105 % of control | T/C (dose: 120.0 mg/kg/injection, schedule: Q01DX005 (ip), vehicle: saline with Tween-80): 116 % of control | T/C (dose: 240.0 mg/kg/injection, schedule: Q01DX005 (ip), vehicle: saline with Tween-80): 122 % of control

N#CCCN(CCC#N)C(CCC(=O)O)C(=O)O (centres undefined)
T/C (dose: 50.0 mg/kg/injection, schedule: Q01DX005 (ip), vehicle: saline): 93 % of control | T/C (dose: 100.0 mg/kg/injection, schedule: Q01DX005 (ip), vehicle: saline): 100 % of control | T/C (dose: 200.0 mg/kg/injection, schedule: Q01DX005 (ip), vehicle: saline): 101 % of control

CC(=O)Oc1cc2c(=O)oc3c(OC(C)=O)c(OC(C)=O)c(OC(C)=O)c4c(=O)oc(c1OC(C)=O)c2c34
T/C [4]: 101 % of control | T/C [1]: 86 % of control | T/C [11]: 86 % of control | T/C [12]: 86 % of control | T/C [3]: 88 % of control | T/C (dose: 400.0 mg/kg/injection, schedule: Q01DX009 (ip), vehicle: saline): 94 % of control

O=NNc1ccc(Sc2ccc(NN=O)nc2)cc1
T/C (dose: 3.12 mg/kg/injection, schedule: Q01DX009 (ip), vehicle: water): 124 % of control | T/C (dose: 6.25 mg/kg/injection, schedule: Q01DX009 (ip), vehicle: water): 123 % of control | T/C (dose: 12.5 mg/kg/injection, schedule: Q01DX009 (ip), vehicle: water): 100 % of control
